Reference: US20260262643A1, “HERBICIDAL BENZOXAZINES” (FMC CORPORATION, priority 2022, published 2026)

Key:
barnyardgrass [1] = test: Test C preemergence; type: in vivo, Echinochloa crusgalli; conditions: 0 to 100 scale (0 no effect, 100 complete control)
Procedure, shortened: (§1)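 Pre: seeds in loam/sand, directed soil spray. Post: 1–2 leaf plants, 2–10 cm. Cmpd in non-phytotoxic solvent + surfactant. Greenhouse 10 d; visual rating vs untreated, 0 = none, 100 = complete control.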

blackgrass [2] = test: Test C preemergence; type: in vivo, Alopecurus myosuroides; conditions: 0 to 100 scale (0 no effect, 100 complete control)
Procedure, shortened: as §1

corn [3] = test: Test C preemergence; type: in vivo, Zea mays; conditions: 0 to 100 scale (0 no effect, 100 complete control)
Procedure, shortened: as §1

green foxtail [4] = test: Test C preemergence; type: in vivo, Setaria viridis; conditions: 0 to 100 scale (0 no effect, 100 complete control)
Procedure, shortened: as §1

kochia [5] = test: Test C preemergence; type: in vivo, Bassia scoparia; conditions: 0 to 100 scale (0 no effect, 100 complete control)
Procedure, shortened: as §1

oat, wild [6] = test: Test C preemergence; type: in vivo, Avena fatua; conditions: 0 to 100 scale (0 no effect, 100 complete control)
Procedure, shortened: as §1

pigweed, palmer [7] = test: Test C preemergence; type: in vivo, Amaranthus palmeri; conditions: 0 to 100 scale (0 no effect, 100 complete control)
Procedure, shortened: as §1

ragweed [8] = test: Test C preemergence; type: in vivo, Ambrosia artemisiifolia; conditions: 0 to 100 scale (0 no effect, 100 complete control)
Procedure, shortened: as §1

ryegrass, Italian [9] = test: Test C preemergence; type: in vivo, Lolium multiflorum; conditions: 0 to 100 scale (0 no effect, 100 complete control)
Procedure, shortened: as §1

soybean [10] = test: Test C preemergence; type: in vivo, Glycine max; conditions: 0 to 100 scale (0 no effect, 100 complete control)
Procedure, shortened: as §1

wheat [11] = test: Test C preemergence; type: in vivo, Triticum aestivum; conditions: 0 to 100 scale (0 no effect, 100 complete control)
Procedure, shortened: as §1

barnyardgrass [12] = test: Test C postemergence; type: in vivo, Echinochloa crusgalli; conditions: 10 days
Procedure, shortened: as §1

blackgrass [13] = test: Test C postemergence; type: in vivo, Alopecurus myosuroides; conditions: 10 days
Procedure, shortened: as §1

corn [14] = test: Test C postemergence; type: in vivo, Zea mays; conditions: 10 days
Procedure, shortened: as §1

green foxtail [15] = test: Test C postemergence; type: in vivo, Setaria viridis; conditions: 10 days
Procedure, shortened: as §1

kochia [16] = test: Test C postemergence; type: in vivo, Bassia scoparia; conditions: 10 days
Procedure, shortened: as §1

oat, wild [17] = test: Test C postemergence; type: in vivo, Avena fatua; conditions: 10 days
Procedure, shortened: as §1

pigweed, palmer [18] = test: Test C postemergence; type: in vivo, Amaranthus palmeri; conditions: 10 days
Procedure, shortened: as §1

ragweed [19] = test: Test C postemergence; type: in vivo, Ambrosia artemisiifolia; conditions: 10 days
Procedure, shortened: as §1

ryegrass, Italian [20] = test: Test C postemergence; type: in vivo, Lolium multiflorum; conditions: 10 days
Procedure, shortened: as §1

soybean [21] = test: Test C postemergence; type: in vivo, Glycine max; conditions: 10 days
Procedure, shortened: as §1

wheat [22] = test: Test C postemergence; type: in vivo, Triticum aestivum; conditions: 10 days
Procedure, shortened: as §1

galium = test: Test C postemergence; type: in vivo, Galium aparine; conditions: 10 days
Procedure, shortened: as §1

horseweed = test: Test C postemergence; type: in vivo, Erigeron canadensis; conditions: 10 days
Procedure, shortened: as §1

barnyardgrass [23] = test: Test D flooded paddy test; type: in vivo, Echinochloa crus-galli; conditions: 250 g ai/ha, applied to paddy water, visual rating after 13 to 14 days, scale 0 to 100 (0 no effect, 100 complete control)
Procedure, shortened: (§2)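 Post-flood water application at the 2-leaf stage; 3 cm flood depth kept constant; visual control rating 0–100 after 13–14 days greenhouse growth.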

ducksalad = test: Test D flooded paddy test; type: in vivo, Heteranthera limosa; conditions: 250 g ai/ha, applied to paddy water, visual rating after 13 to 14 days, scale 0 to 100 (0 no effect, 100 complete control)
Procedure, shortened: as §2

rice = test: Test D flooded paddy test; type: in vivo, Oryza sativa; conditions: 250 g ai/ha, applied to paddy water, visual rating after 13 to 14 days, scale 0 to 100 (0 no effect, 100 complete control)
Procedure, shortened: as §2

sedge, umbrella = test: Test D flooded paddy test; type: in vivo, Cyperus difformis; conditions: 250 g ai/ha, applied to paddy water, visual rating after 13 to 14 days, scale 0 to 100 (0 no effect, 100 complete control)
Procedure, shortened: as §2

[24] = Preemergence, 500 g ai/ha, visual rating after 10 days
[25] = Test C, preemergence, 125 g ai/ha
[26] = 125 g ai/ha, postemergence, 0 to 100 scale, 0 no effect, 100 complete control
[27] = Postemergence, 500 g ai/ha, visual 0 to 100 scale (0 no effect, 100 complete control)

## COc1ccc(-n2cnc(C(C)C)n2)cc1C(=O)N1C[C@H](C)Oc2c1cccc2C(F)(F)F [Compound 171]
Barnyardgrass [1]; [24]
  Plant response rating, Barnyardgrass: 100
Barnyardgrass [1]; [25]
  Barnyardgrass plant response rating: 90
Blackgrass [2]; [24]
  Plant response rating, Blackgrass: 70
Blackgrass [2]; [25]
  Blackgrass plant response rating: 70
Corn [3]; [24]
  Plant response rating, Corn: 40
Corn [3]; [25]
  Corn plant response rating: 30
Green foxtail [4]; [24]
  Plant response rating, Foxtail, Green: 100
Green foxtail [4]; [25]
  Foxtail, Green plant response rating: 100
Kochia [5]; [24]
  Plant response rating, Kochia: 90
Kochia [5]; [25]
  Kochia plant response rating: 90
oat, wild [6]; [24]
  Plant response rating, Oat, Wild: 80
oat, wild [6]; [25]
  Oat, Wild plant response rating: 70
pigweed, palmer [7]; [24]
  Plant response rating, Pigweed, Palmer: 100
pigweed, palmer [7]; [25]
  Pigweed, Palmer plant response rating: 100
Ragweed [8]; [24]
  Plant response rating, Ragweed: 90
Ragweed [8]; [25]
  Ragweed plant response rating: 60
ryegrass, Italian [9]; [24]
  Plant response rating, Ryegrass, Italian: 90
ryegrass, Italian [9]; [25]
  Ryegrass, Italian plant response rating: 50
Soybean [10]; [24]
  Plant response rating, Soybean: 100
Soybean [10]; [25]
  Soybean plant response rating: 60
Wheat [11]; [24]
  Plant response rating, Wheat: 90
Wheat [11]; [25]
  Wheat plant response rating: 40
Barnyardgrass [12]; [26]
  Plant response rating, Barnyardgrass: 30
Barnyardgrass [12]; [27]
  Plant response rating, Barnyardgrass: 40
Blackgrass [13]; [26]
  Plant response rating, Blackgrass: 30
Blackgrass [13]; [27]
  Plant response rating, Blackgrass: 80
Corn [14]; [26]
  Plant response rating, Corn: 20
Corn [14]; [27]
  Plant response rating, Corn: 20
Green foxtail [15]; [26]
  Plant response rating, Foxtail, Green: 40
Green foxtail [15]; [27]
  Plant response rating, Foxtail, Green: 50
Kochia [16]; [26]
  Plant response rating, Kochia: 90
Kochia [16]; [27]
  Plant response rating, Kochia: 90
oat, wild [17]; [26]
  Plant response rating, Oat, Wild: 10
oat, wild [17]; [27]
  Plant response rating, Oat, Wild: 50
pigweed, palmer [18]; [26]
  Plant response rating, Pigweed, Palmer: 100
pigweed, palmer [18]; [27]
  Plant response rating, Pigweed, Palmer: 100
Ragweed [19]; [26]
  Plant response rating, Ragweed: 60
Ragweed [19]; [27]
  Plant response rating, Ragweed: 70
ryegrass, Italian [20]; [26]
  Plant response rating, Ryegrass, Italian: 60
ryegrass, Italian [20]; [27]
  Plant response rating, Ryegrass, Italian: 80
Soybean [21]; [26]
  Plant response rating, Soybean: 100
Soybean [21]; [27]
  Plant response rating, Soybean: 100
Wheat [22]; [26]
  Plant response rating, Wheat: 10
Wheat [22]; [27]
  Plant response rating, Wheat: 40
galium; [26]
  Plant response rating, Galium: 100
galium; [27]
  Plant response rating, Galium: 100
horseweed; [26]
  Plant response rating, Horseweed: 20
horseweed; [27]
  Plant response rating, Horseweed: 80
Barnyardgrass [23]
  Plant response rating, Barnyardgrass (Flood): 0
ducksalad
  Plant response rating, Ducksalad (Flood): 60
rice
  Plant response rating, Rice (Flood): 0
sedge, umbrella
  Plant response rating, Sedge, Umbrella (Flood): 95
